Laboratory results: US7566459B2, “Modified mycobacterium tuberculosis strains and uses thereof” (priority 2005, dated 2009)
No end group written: not given here. *: point of attachment. Palmitoyl = CCCCCCCCCCCCCCCC(=O)*

Key:
human TLR2 = target: T1, human TLR2 (Homo sapiens, UniProt O60603); assay type: cell-based
T1 construct: using an HEK293 cell line stably transfected with cDNA encoding human TLR2

[1] = tested on: bone marrow derived macrophages (BMDM); assay type: cell-based, mice
BMDM = assay: cells; assay type: cell-based, mice; settings: Mus musculus, read-out: inhibition of TNFα production (as a measure of protein synthesis)
RAW264.7 cells [2] = assay type: cell-based, murine
RAW264.7 cells [3] = assay type: cell-based, murine; remark: listed apart in the source

T1 sequence (O60603 21-784): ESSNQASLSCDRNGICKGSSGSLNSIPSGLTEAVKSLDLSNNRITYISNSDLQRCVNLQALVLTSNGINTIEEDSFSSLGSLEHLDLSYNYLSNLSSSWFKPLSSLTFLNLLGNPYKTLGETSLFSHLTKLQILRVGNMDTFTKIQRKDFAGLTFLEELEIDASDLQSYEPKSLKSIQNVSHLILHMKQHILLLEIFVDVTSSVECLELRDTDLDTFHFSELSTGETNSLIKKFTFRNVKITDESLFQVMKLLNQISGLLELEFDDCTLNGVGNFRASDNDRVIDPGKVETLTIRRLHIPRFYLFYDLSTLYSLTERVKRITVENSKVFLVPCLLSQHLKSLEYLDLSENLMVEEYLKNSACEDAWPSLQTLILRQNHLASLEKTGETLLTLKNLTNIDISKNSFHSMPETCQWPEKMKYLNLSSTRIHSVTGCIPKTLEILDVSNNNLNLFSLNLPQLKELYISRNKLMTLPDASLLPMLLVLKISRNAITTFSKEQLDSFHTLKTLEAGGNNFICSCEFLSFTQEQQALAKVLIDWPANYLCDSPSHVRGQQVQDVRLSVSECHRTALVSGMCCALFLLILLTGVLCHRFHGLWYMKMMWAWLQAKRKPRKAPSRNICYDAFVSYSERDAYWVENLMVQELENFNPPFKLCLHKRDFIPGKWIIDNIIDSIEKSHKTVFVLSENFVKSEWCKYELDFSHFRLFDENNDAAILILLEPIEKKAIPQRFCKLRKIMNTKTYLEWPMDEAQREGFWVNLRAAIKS

## (S)-[2,3-Bis(palmitoyloxy)-(2-RS)-propyl]-(R)-Cys-(S)-Ser-(S)-Lys4×3 CF3COOH (CSKKKK; not fully specified (residue 1); also: 3 CF3COOH salt) [Pam2CSK4, diacylated analog of Pam3CSK4]
Human TLR2
  activation of 293-TLR2 cells / secretion of IL-8 (in words): significant amounts of IL-8

## C[C@@H]1C[C@@H]([C@H](O)CC2CC(=O)NC(=O)C2)C(=O)[C@@H](C)C1 [cycloheximide]
[1]
  effect on ability of wild-type or ΔlspA Mycobacterium tuberculosis to inhibit IFNγ induction of CIITA gene expression: prevented
BMDM
  inhibition at 0.5 µM: ~90%

## macrophage-activating lipopeptide-2
Human TLR2
  activation of 293-TLR2 cells / secretion of IL-8 (in words): significant amounts of IL-8

## (S)-[2,3-Bis(palmitoyloxy)-(2-RS)-propyl]-N-palmitoyl-(R)-Cys-(S)-Ser-(S)-Lys4-OH, 3HCl (Palmitoyl-CSKKKK-OH; not fully specified (residue 1); also: 3 HCl salt) [Pam3CSK4, synthetic triacylated hexapeptide, TLR2/TLR1 agonist]
RAW264.7 cells [2]
  inhibition of IFNγ induction of surface MHC class II: greater than 90%
RAW264.7 cells [3]
  IFNγ induction of class II transactivator (CIITA) mRNA: potently inhibited
